Measured values reported in ChEMBL document CHEMBL1926531, “Butamben derivatives enhance BMP-2-stimulated commitment of C2C12 cells into osteoblasts with induction of voltage-gated potassium channel expression” (Bioorg Med Chem Lett, 2011).
Active and inactive are the calls of the source. The calls are words filed in the database; no cut-off is given here.

Legend:
[1] = molecular target: T1, Bone morphogenetic protein 2 (Homo sapiens) (UniProt P12643); experiment: Increase in BMP2-mediated osteoblastogenesis in mouse C2C12 cells assessed as increase in BMP4 mRNA level at 10 uM by SYBR-based RT-PCR; type: cell-based
T1 sequence (whole entry): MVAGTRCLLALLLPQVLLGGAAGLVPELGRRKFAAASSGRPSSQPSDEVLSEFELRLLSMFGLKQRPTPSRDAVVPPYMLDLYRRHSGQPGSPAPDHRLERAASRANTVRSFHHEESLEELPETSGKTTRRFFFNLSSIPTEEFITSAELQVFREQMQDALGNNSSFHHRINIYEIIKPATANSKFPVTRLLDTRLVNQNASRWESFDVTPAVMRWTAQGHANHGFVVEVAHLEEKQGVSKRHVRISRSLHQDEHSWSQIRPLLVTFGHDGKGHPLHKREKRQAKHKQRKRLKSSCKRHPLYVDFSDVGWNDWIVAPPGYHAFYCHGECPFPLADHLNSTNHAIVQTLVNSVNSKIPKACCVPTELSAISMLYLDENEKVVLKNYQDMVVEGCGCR

C2C12 = experiment: Induction of alkaline phosphatase activity in mouse C2C12 cells; type: cell-based
[2] = molecular target: T1, Bone morphogenetic protein 2 (Homo sapiens); experiment: Increase in BMP2-mediated osteoblastogenesis in mouse C2C12 cells assessed as increase in BMP6 mRNA level at 10 uM by SYBR-based RT-PCR; type: cell-based
[3] = molecular target: T1, Bone morphogenetic protein 2 (Homo sapiens); experiment: Increase in BMP2-mediated osteoblastogenesis in mouse C2C12 cells assessed as increase in BMP7 mRNA level at 10 uM by SYBR-based RT-PCR; type: cell-based
[4] = molecular target: T1, Bone morphogenetic protein 2 (Homo sapiens); experiment: Increase in human recombinant BMP2-mediated osteoblastogenesis in mouse C2C12 cells assessed as induction of alkaline phosphatase activity after 6 days; type: cell-based
[5] = molecular target: T1, Bone morphogenetic protein 2 (Homo sapiens); experiment: Increase in BMP2-mediated osteoblastogenesis in mouse C2C12 cells assessed as increase in BMP9 mRNA level at 10 uM by SYBR-based RT-PCR; type: cell-based
[6] = molecular target: T1, Bone morphogenetic protein 2 (Homo sapiens); experiment: Increase in BMP2-mediated osteoblastogenesis in mouse C2C12 cells assessed as increase in OCN mRNA level at 10 uM by SYBR-based RT-PCR; type: cell-based
[7] = molecular target: T1, Bone morphogenetic protein 2 (Homo sapiens); experiment: Increase in BMP2-mediated osteoblastogenesis assessed as increase in Kv1.5 mRNA expression at 10 uM after 3 days by RT-PCR analysis
[8] = molecular target: T1, Bone morphogenetic protein 2 (Homo sapiens); experiment: Increase in BMP2-mediated osteoblastogenesis assessed as increase in nuclear translocation of Smad at 10 uM by Western blot analysis
[9] = molecular target: T1, Bone morphogenetic protein 2 (Homo sapiens); experiment: Increase in human recombinant BMP2-mediated osteoblastogenesis assessed as increase in alkaline phosphatase activity in mouse C2C12 cells at 10 uM treated with BMP2 antagonist on day 4 post compound challenge measured after 6 days; type: functional, cell-based
[10] = molecular target: T1, Bone morphogenetic protein 2 (Homo sapiens); experiment: Increase in BMP2-mediated osteoblastogenesis assessed as increase in phosphorylation of Smad at 10 uM by Western blot analysis
[11] = molecular target: T1, Bone morphogenetic protein 2 (Homo sapiens); experiment: Increase in BMP2-mediated osteoblastogenesis assessed as increase in Kv4.2 mRNA expression at 10 uM after 6 hrs after 3 days by RT-PCR analysis
[12] = molecular target: T1, Bone morphogenetic protein 2 (Homo sapiens); experiment: Increase in BMP2-mediated osteoblastogenesis assessed as increase in BMP2 protein level in mouse C2C12 cells at 10 uM by Western blot analysis; type: cell-based
[13] = molecular target: T1, Bone morphogenetic protein 2 (Homo sapiens); experiment: Increase in human recombinant BMP2-mediated osteoblastogenesis assessed as increase in alkaline phosphatase activity in mouse C2C12 at 10 uM co-treated with BMP2 antagonist noggin on day 3 measured after 6 days; type: functional
[14] = molecular target: T1, Bone morphogenetic protein 2 (Homo sapiens); experiment: Increase in BMP2-mediated osteoblastogenesis assessed as increase in BMP7 protein level in mouse C2C12 cells at 10 uM by Western blot analysis; type: cell-based
[15] = molecular target: T1, Bone morphogenetic protein 2 (Homo sapiens); experiment: Increase in BMP2-mediated osteoblastogenesis assessed as increase in phosphorylated of Smad level in nucleus at 10 uM after 6 hrs by Western blot analysis
[16] = molecular target: T1, Bone morphogenetic protein 2 (Homo sapiens); experiment: Increase in BMP2-mediated osteoblastogenesis assessed as increase in Kv1.1 mRNA expression at 10 uM by RT-PCR analysis
[17] = molecular target: T1, Bone morphogenetic protein 2 (Homo sapiens); experiment: Increase in human recombinant BMP2-mediated osteoblastogenesis assessed as increase in alkaline phosphatase mRNA expression in mouse C2C12 at 10 uM co-treated with BMP2 antagonist noggin on day 3 measured after 6 days by SYBR-based RT-PCR; type: functional
[18] = molecular target: T1, Bone morphogenetic protein 2 (Homo sapiens); experiment: Increase in human recombinant BMP2-mediated osteoblastogenesis assessed as increase in alkaline phosphatase mRNA expression in mouse C2C12 cells at 10 uM treated with BMP2 antagonist noggin on day 4 post compound challenge measured after 6 days by SYBR-based RT-PCR; type: functional, cell-based
[19] = molecular target: T1, Bone morphogenetic protein 2 (Homo sapiens); experiment: Increase in BMP2-mediated osteoblastogenesis assessed as increase in Kv4.3 mRNA expression at 10 uM after 6 hrs after 3 days by RT-PCR analysis

Activity [1]	Activity [2]	Activity [3]	Activity [4]	Activity [5]	Activity [6]	Activity [7]	Activity [8]	Activity [9]	Activity [10]	Activity [11]	Activity [12]	Activity [13]	Activity [14]	Activity [15]	Activity [16]	Activity [17]	Activity [18]	Activity [19]	Compound	Activity (C2C12)
Active	Active	Active	Dose-dependent effect	Active	Active														CC(C)OC(=O)c1ccc(N)cc1	inactive
Active	Active	Active	Dose-dependent effect	Active	Active	Active	Active	inactive	Active	Active	Active	inactive	Active	Active	Active	inactive	inactive	Active	CCCCOC(=O)c1ccc(NC(C)=O)cc1	inactive
Active	Active	Active	Dose-dependent effect	Active	Active														COC(=O)c1ccc(N)cc1	inactive
Active	Active	Active	Dose-dependent effect	Active	Active														CCCCOC(=O)c1ccc(N)cc1	inactive
